For series [1], the system named is A549 lung carcinoma cells. Kind of series: Antiproliferative activity, SRB assay. The series is classed as cell-based, human. How it is done:
(§1) The antiproliferative activity against human A549 lung, IGROV-1 ovarian, and HeLa cervical cancer cell lines and MRC5 normal lung fibroblasts was determined by the sulforhodamine B (SRB) assay. […] IGROV-1 is known to be cisplatin-sensitive and subject to hypermutation.
(§2) 2.8 Mammalian cell culture
(§3) The human ovarian cancer cell line, IGROV-1; the human cervical cancer cell line, HeLa; the human […]; and the human non-cancerous lung fibroblast cell line, MRC5 were cultured in DMEM supplemented with 10% FBS and 100 units/mL of penicillin and 100 µg/mL of streptomycin (1x pen/strep). All cell lines were incubated at 310 K with 5% CO2 and 95% humidity for routine maintenance and during drug treatment.
(§4) 2.9 Sulforhodamine (SRB) cytotoxicity assay
(§5) Cells were seeded at 5 × 10^3 cells per well and incubated at 310 K for 48 h. Stock solutions (200 µM) of the complexes were prepared by dissolving the compound in 5% (v/v) DMSO followed by dilution with DMEM and serial dilutions with DMEM were prepared (0.1 µM-200 The cells were exposed to the drug for 24 h. The drug was then removed, and cells were allowed to recover for 72 h, in drug-free media. Cell viability was then determined by the SRB colorimetric assay. The solubilised dye absorbance was analysed on a microplate reader (Thermo Scientific Multiskan FC with Scanit software 4.1) at 470 nm. Data were normalized using Microsoft Excel, and dose-response curves fitted using Origin 2016. The IC50 values
For orientation: In SRB staining, fixed cells bind dye roughly in proportion to their protein.

For series [2], the system named is HeLa cervical adenocarcinoma cells. In words: Antiproliferative activity, SRB assay. It counts as cell-based, human. How it is done: as §1, §2, §3, §4
as §5, with “µM-200 µM).” for “µM-200”

Series [3] concerns IGROV-1 human ovarian cancer cells. Kind of series: Cell cycle arrest by flow cytometry (PI). The series is classed as cell-based. Conditions: IGROV-1, 100 μM, 24 h treatment, vs untreated. How it is done:
2 Effect of Os/Ru-LBSO and glycine complexes at 50 or 100 μM on the phases of the cell cycle of IGROV-1 human ovarian cancer cells compared with untreated (control) cells. Percentage of cells in G1 (black bar, cell growth), S (gray, DNA synthesis), G2/M, (white, growth/mitosis) as determined by flow cytometry after 24 h treatment with complexes. […] Standard deviations calculated for N = 3 *p-value <0.05 comparing to untreated sample.
as §2
The human ovarian cancer cell line, IGROV-1; the human cervical cancer cell line, HeLa; the human […]; and the human non-cancerous lung fibroblast cell line, MRC5 were cultured in DMEM supplemented with 10% FBS and 100 units/mL of penicillin and 100 µg/mL of streptomycin (1x pen/strep). All cell lines were incubated at 310 K with 5% CO2 and 95% humidity for routine maintenance and during drug treatment. […]
IGROV-1 cells (1 x 10^6 cells per well) were seeded in a 6-well plate and incubated for 24 h at 310 K. Stock solutions (200 µM) of the complexes were prepared by dissolving the compound in 5% (v/v) DMSO followed by dilution with DMEM and then diluted to desired concentrations. All complexes (50 µM and 100 µM) were added to the wells and incubated for 24 h. Cell pellets were collected using 0.25% trypsin and centrifuged (500 x g, 5 mins at 4 °C). Then washed in PBS and fixed with 100% ice-cold ethanol for 20 min on ice. The ethanol […]
was aspirated, cells washed in ice-cold PBS and then stained with 0.2 mg/mL RNase, 0.05 mg/mL propidium iodide (PI) in PBS for 25 min in the dark and on ice. Excess dye was removed, and cells were re-suspended in PBS. Samples were analysed by flow cytometry using the BD
A general note: A flow cytometer gives signals particle by particle.

Series [4] has as its system intracellular GSH in IGROV-1 cells. Kind of series: Glutathione colorimetric detection assay. The series is classed as cell-based, human. Particulars: IGROV-1, 50 μM, 24 h; statistical significance not confirmed. As for the experimental part: This lowering was not observed for Ru-LBSO which is not active in this cell line. Other papers have shown a similar result by including L-BSO as an additional agent, therefore showing L-BSO remains inhibitory.
Once the agarose had set , the slides were submerged in alkaline lysis solution (1.3 M NaCl, 100 mM Na2EDTA, 0.1% sodium lauryl sarcosinate, 0.26 M NaOH pH > 13) and incubated overnight at 277 K in the dark. The following day the slides were rinsed for 20 min three times in the electrophoresis solution ([…] NaOH, 2mM Na 2EDTA pH 12.3). The slides were then placed into the electrophoresis tank with fresh electrophoresis buffer, 1 -2 mm above the slides. Electrophoresis was run at 18.3 V for 25 min. Once electrophoresis was complete, slides were rinsed in distilled water and placed in 2.5 µg/mL PI for 20 min. After staining, cells were rinsed in distilled water to remove excess stain. Twenty comet images per sample were taken by confocal microscopy and analysed by OpenComet. 10
1 x 10^6 IGROV-1 cells were seeded in a 6-well plate and incubated for 24 h at 310 K. All complexes (50 µM and 100 µM) were added to the wells and incubated for 24 h. […]
Percentage of IGROV -1 cancer cells in non -apoptotic, apoptotic (early and late) or necrotic phases determined by flow cytometry after 24 h treatment with Os/Ru L -BSO and glycine complexes. […] Standard deviations calculated for N=3. […]

Series [5] can be described thus: Aqueous stability / hydrolysis monitored by 1H NMR. Particulars: 3:7 v/v methanol-d4:D2O, 310 K, 36 h, then excess NaCl (130 mM) 24 h. The series is classed as physicochemical.

The record followed here is paper PMC12728982, “Multichiral Half-Sandwich Ru(II) and Os(II) Anticancer Complexes Containing a Glutathione Synthesis Inhibitor” (Organometallics, 2025).

Consider [(p-cymene)Os(L-BSO)Cl] [Os-LBSO], for which, in series [1] (A549, SRB), the “Activity toward lung cancer cells” value was “inactive”. Besides, the IC50 is more than 200 µM in series [1] (A549, SRB assay, 24 h treatment, 72 h recovery) and more than 200 µM in series [2] (SRB assay, 24 h treatment, 72 h recovery). Besides, the “Activity toward HeLa cervical cancer cells” value in series [2] (SRB) was “inactive”. In series [3], the “G1 arrest (percentage of cells in G1)” value is listed as “significantly increased”. The “Lowering of intracellular GSH level” value in series [4] is reported as “ca. 50%”. Moreover, in series [5], the “Hydrolysis” value was “does not readily hydrolyze”.

One may read the IC50 as the midpoint of a concentration-inhibition curve. A high value points to lower potency.
